Test results published in US20050187288A1, “Beta-lapachone and methods of treating cancer” (priority 2004, published 2005).

Tests used:
G480 lung cancer cells = experiment: Colony formation assay, single agents and combination; type: cell-based; conditions: G480; β-lapachone 4 μM, 4 hours; average (SEM) of three experiments
Source text: Control plates received the same volume of DMSO alone. […] Treated wells were presented as percentage of control. Data were presented as an average (+SEM) from three independent experiments.

ASPC-1 = experiment: Colony formation assay, combination with Taxol; type: cell-based, human; conditions: β-Lapachone 4 μM, Taxol 0.2 μM, 4 hours
Experimental: Control wells were treated with equivalent volumes of DMSO. After 4 hours cells were rinsed and fresh medium is added. Cultures were observed daily for 10-20 days and then were fixed and stained. […] DNA laddering formation and annexin staining indicate that cell death is due to apoptosis.

60 cancer cell lines = conditions: FDA approved agents, publicly available data; cited from earlier work

Row | SMILES | Colonies (percent control) (G480 lung cancer cells) | Colonies, Percentage of control (ASPC-1) | mean LC50 across all cells compared with the mean of β-lapachone (60 cancer cell lines)
1 | CC(=O)O[C@H]1C(=O)[C@@]2(C)[C@H]([C@H](OC(=O)c3ccccc3)[C@]3(O)C[C@H](OC(=O)[C@H](O)[C@@H](NC(=O)c4ccccc4)c4ccccc4)C(C)=C1C3(C)C)[C@]1(OC(C)=O)CO[C@@H]1C[C@@H]2O [Taxol ®, paclitaxel, reference compound] | 39 (2.6) percent control | 71 (0.8) Percentage of control | 
2 | O=C1c2c(O)ccc(O)c2C(=O)c2c(NCCNCCO)ccc(NCCNCCO)c21 [mitoxantrone] |  |  | equals it
